This note sets out measurements from US12365651B2, “Use of pirfenidone and derivatives for modulation of B lymphocyte activity and organ protection from acute tissue damage” (Washington University, priority 2017, dated 2025).

One data set relates to naïve WT hearts. Briefly: Flow cytometry of naïve WT hearts after Pirfenidone for 1 week. The data set is classed as in vivo, mouse. The conditions noted are these: Pirfenidone 1 week. From the text: Accordingly, we performed FACS analysis 4 days after DT injection.
In order to administer Pirfenidone, mice were fed powdered chow mixed with Pirfenidone (eNovation Chemicals, Bridgewater, NJ, USA, Cat #D404655) at 0.5% in weight or powdered chow alone. […] Unless specifically noted, mice were switched to a diet enriched with Pirfenidone 3 days prior to DT-induced injury or I/R-injury, and maintained on this diet throughout the duration of the experiments. In parallel studies, we fed mice normal chow prior to I/R injury and then administered Pirfenidone acutely at the time of cardiac injury. For these latter studies, mice were injected i.p. with diluent (200 μL phosphate-buffered solution [PBS]) or i.p. with Pirfenidone (200 μL of Pirfenidone [5 mg/mL] in PBS) after reperfusion and the morning after I/R injury (2 injections total). They were switched to Pirfenidone-enriched diet or control diet the evening of I/R injury and maintained on the same diet until completion of the experiment.
For flow cytometry experiments, mice were euthanized in a CO2 chamber and the hearts were perfused with cold PBS, carefully dissected from extracardiac tissue under a stereo microscope, finely minced, suspended in 3 ml of DMEM, and then digested with 120 U of DNAse (Sigma), 180 U of hyaluronidase (Sigma) and 1350 U of Collagenase (Sigma) for 60 minutes at 37Co. The digested material was filtered through 40 μm filters and pelleted by centrifugation (250×g for 3 minutes at 4° C.) in HBSS supplemented with 2% FCS+0.2% bovine serum albumin (BSA). Red blood cells were lysed in ACK lysis buffer (Invitrogen) for 15′ on ice and the remaining cells were resuspended in 300 μL of FACS buffer (PBS with 2% FCS and 2 mM EDTA). Cultured cells were collected for FACS analysis as described above and resuspended in 300 μL of FACS buffer. Samples were labeled with the fluorescently conjugated antibodies outlined in the table below. Cells were stained for 45 minutes on ice, and washed in FACS buffer prior to analysis. All antibodies from Biolegend were used at 0.2 μL per 300 μL sample, while antibodies from BD biosciences were used at 0.4 μL per 300 μL sample. FACS was performed on Beckton Dickinson analyzers (LSRII, Canto, X20 or Fortessa). Compensation controls were generated using UltraComp ebeads (Invitrogen, Carlsbad, CA, USA) and verified on single color control samples obtained staining primary splenocytes. For flow cytometry experiments that involved the DT injury model, we collected serum at the time of terminal sacrifice for quantification of troponin. […] Cell sorting was performed using a FACSAria sorting instrument (Beckton Dickinson) at the Washington University Department of Pathology Flow Cytometry and Sorting Core.
In general terms: A flow cytometer gives signals particle by particle.

Data set [1] deals with purified B lymphocytes harvested from the spleen. Briefly: CD86 on cultured purified splenic B lymphocytes. Format: cell-based, mouse. The source says: We next sought to determine whether the response of B cells to necrotic cytosolic extracts and LPS were cell autonomous, by repeating the above in vitro experiments in purified B lymphocytes harvested from the spleen. […] In contrast, necrotic cytosolic extracts induced a small, non-statistically significant (p=0.62) upregulation of CD19+ CD86high B cells when compared to diluent treated cells (FIG. 10G). Similar results were obtained in splenic B lymphocytes from TIRAP−/− animals (FIG. 10H).
Peritoneal derived inflammatory cells (PDICs) were harvested from the peritoneal cavity of thioglycolate-stimulated wild-type and TIRAP−/− deficient mice. PDIC cultures contain an admixture of inflammatory cells, including CD19+ B cells (40). TIRAP deficient mice were a gift from Dr. Ruslan Medzhitov (Yale University, New Haven, CT). PDICs were harvested on day 4 after i.p. injection of 1 ml of thioglycolate medium (Millipore, Billerica, MA, USA). Mice were euthanized, and the peritoneal cavity was washed 3-4 times with 3 mLs of Dulbecco's modified medium containing 10% fetal calf serum. A 3 mL syringe with an 18-gauge needle was used to inject the peritoneal cavity and retrieve the medium containing PDICs. Harvested cells were centrifuged at 250 g for 5 minutes, re-suspended in 5 mL of media and then filtered through a 40 μm strainer. […]

Data set [2] is described as follows: Plasma pharmacokinetics after IV or PO administration. To be noted: SD Rat, PO 40 mg/kg. Format: in vivo.

“And” between values parts separate entries of the source, which are not always exact repeats. Equal values may be shown once.

The Tmax is the time from dosing to the highest level. Consider `Cc1ccc(=O)n(-c2ccccc2)c1` [Pirfenidone, 5 methyl-1-phenyl-2-[H] pyridone], for which the “number of CD45+ cells/mg tissue” value with naïve WT hearts (p=0.53) was “no significant effect”. Moreover, the “Ly6C+CD64 low/− monocytes” value with naïve WT hearts (p=0.81) is “no significant effect”. Besides, in the data set with naïve WT hearts (p=0.82), the “CD64+Ly6Clow/− macrophages” value is given as “no significant effect” and the “Ly6G+ neutrophils” value was “no significant effect”. Besides, the “CD19+ B-lymphocytes” value in the data set with naïve WT hearts (p=0.94) is listed as “no significant effect”. In data set [1] (B lymphocytes from the spleen, 24 hours, LPS + 0.5% pirfenidone), the “LPS induced expression of CD86 on B cells” value was “significantly reduced”. For the same compound, the “LPS provoked increase in CD19+ CD86high cells” value in data set [1] (purified splenic B lymphocytes, wild type, LPS) is on record as “partially sensitive to inhibition”. Moreover, in data set [2], the “AUMC0-t, Mean” value is 14976 h*h*ng/mL. Moreover, the “Plasma concentrations of Pirfenidone” value in data set [2] (8 h, individual rats 7-9, 40 mg/kg) is “BLOQ (Below lower limit of quantification (1 ng/mL)) and 23.6 ng/ml and 107 ng/ml”. Also, the Tmax in data set [2] (Sprague-Dawley, plasma, individual rats 7-9) was found to be 15 min.
